{"source": "patent US12233177B2", "about": "“Method for external sterilization of drug delivery device” (AMGEN INC., priority 2019, dated 2025)", "test_system": "Geobacillus stearothermophilus", "test": "Lethality study of NO2 external sterilization on spiked pre-filled syringes", "assay_type": "cell-based", "description": "At least some of the backstops illustrated in the figures were tested in a lethality study. For example, pre-filled syringes were “spiked” with between 1×10^6 and 6×10^6 CFU (e.g., between 1,000,000 and 6,000,000 CFU) of Geobacillus stearothermophilus before sterilization cycles. As a more specific example, the backstop and barrel portions of the prefilled syringes were spiked with the 1-6×10^6 CFU of Geobacillus stearothermophilus. As used herein, the term “CFU” refers to “Colony-Forming Unit”, which is a unit used to estimate the number of viable bacteria or fungal cells in a sample (where “viable” is the ability to multiply via binary fission under controlled conditions). Geobacillus stearothermophilus (previously Bacillus stearothermophilus) is a rod-shaped, gram-positive bacterium and a member of the division Firmicutes. The bacterium is a thermophile and is widely distributed in soil, hot springs, ocean sediment, and is a potential cause of spoilage in food products. The spiked pre-filled syringes were then sterilized using various sterilization parameters to measure the lethality of the sterilization process to evaluate the Sterility Assurance Level (SAL). The pre-filled syringes were spiked with biological indicators or direct inoculation, as is discussed in more detail below.\nFor each recipe number, five samples (or at least 5 test locations on one or more samples) were tested. […] For example, the target lethality for this test was a Sterility Assurance Level (SAL) of […]. In other words, the target lethality for this test was 6 logs reduction in the number of bacteria present (before sterilization vs. after sterilization). As a more specific example, for Recipe Number 1, one of the five samples tested reached this target lethality for the backstop area (Col. “Spiked Backstop”, row corresponding with Recipe Number 1), but all five of the samples tested reached this target lethality for the barrel area (Col. “Spiked Barrel”, row corresponding with Recipe Number 1). It should be noted that the spiked backstop test results for Recipe Nos. 1-4 (utilizing the backstop 20 shown in FIGS. 2A-2H) were tested via direct inoculation whereas the spiked backstop test results for Recipe Nos. 5-14 (utilizing alternative backstop 120) were tested via biological indicators. It also should be noted that “-” symbols indicate that no data is reported for those parameters/samples. The testing method variance aside, the samples tested utilizing backstops with protrusions achieved target lethality at a much higher rate than the samples utilizing the backstop without protrusions. As discussed above, the ridges minimize and/or prevent occluded spaces and instead permit the sterilization agent to completely or substantially reach various components of the pre-filled syringe, particularly the backstop and flange areas."}
{"compound": "[O]N=O", "note": "[NO2, Nitrogen Dioxide]", "values": [{"measurement": "Spiked Barrel: samples out of 5 reaching target lethality (6 logs reduction)", "setting": "Recipe 1: 100 Torr, NO2 10 mg/L, 75% RH, dwell 10 min, 2 pulses, 24 aerations, PFS with backstop 20", "result": "5/5"}, {"measurement": "Spiked Backstop: samples out of 5 reaching target lethality (6 logs reduction)", "setting": "Recipe 1: 100 Torr, NO2 10 mg/L, 75% RH, dwell 10 min, 2 pulses, 24 aerations, backstop 20, direct inoculation", "result": "1/5"}, {"measurement": "Spiked Barrel: samples out of 5 reaching target lethality (6 logs reduction)", "setting": "Recipe 2: 300 Torr, NO2 10 mg/L, 75% RH, dwell 10 min, 2 pulses, 35 aerations, PFS with backstop 20", "result": "5/5"}, {"measurement": "Spiked Backstop: samples out of 5 reaching target lethality (6 logs reduction)", "setting": "Recipe 2: 300 Torr, NO2 10 mg/L, 75% RH, dwell 10 min, 2 pulses, 35 aerations, backstop 20, direct inoculation", "result": "0/5"}, {"measurement": "Spiked Barrel: samples out of 5 reaching target lethality (6 logs reduction)", "setting": "Recipe 3: 100 Torr, NO2 20 mg/L, 80% RH, dwell 20 min, 4 pulses, 24 aerations, PFS with backstop 20", "result": "5/5"}, {"measurement": "Spiked Backstop: samples out of 5 reaching target lethality (6 logs reduction)", "setting": "Recipe 3: 100 Torr, NO2 20 mg/L, 80% RH, dwell 20 min, 4 pulses, 24 aerations, backstop 20, direct inoculation", "result": "0/5"}, {"measurement": "Spiked Barrel: samples out of 5 reaching target lethality (6 logs reduction)", "setting": "Recipe 4: 20 Torr, NO2 10 mg/L, 80% RH, dwell 10 min, 4 pulses, 35 aerations, PFS with backstop 20", "result": "5/5"}, {"measurement": "Spiked Backstop: samples out of 5 reaching target lethality (6 logs reduction)", "setting": "Recipe 4: 20 Torr, NO2 10 mg/L, 80% RH, dwell 10 min, 4 pulses, 35 aerations, backstop 20, direct inoculation", "result": "2/5"}, {"measurement": "Spiked Barrel: samples out of 5 reaching target lethality (6 logs reduction)", "setting": "Recipe 5: 20 Torr, NO2 10 mg/L, 75% RH, dwell 10 min, 8 pulses, 28 aerations, PFS with alternative backstops", "result": "5/5"}, {"measurement": "Spiked Backstop: samples out of 5 reaching target lethality (6 logs reduction)", "setting": "Recipe 5: 20 Torr, NO2 10 mg/L, 75% RH, dwell 10 min, 8 pulses, 28 aerations, alternative backstops, biological indicators", "result": "5/5"}, {"measurement": "Spiked Backstop: samples out of 5 reaching target lethality (6 logs reduction)", "setting": "Recipe 6: 20 Torr, NO2 20 mg/L, 80% RH, dwell 20 min, 4 pulses, 24 aerations, alternative backstops, biological indicators", "result": "5/5"}, {"measurement": "Spiked Backstop: samples out of 5 reaching target lethality (6 logs reduction)", "setting": "Recipe 7: 20 Torr, NO2 10 mg/L, 80% RH, dwell 20 min, 4 pulses, 24 aerations, alternative backstops, biological indicators", "result": "5/5"}, {"measurement": "Spiked Backstop: samples out of 5 reaching target lethality (6 logs reduction)", "setting": "Recipe 8: 20 Torr, NO2 10 mg/L, 80% RH, dwell 10 min, 4 pulses, 24 aerations, alternative backstops, biological indicators", "result": "5/5"}, {"measurement": "Spiked Backstop: samples out of 5 reaching target lethality (6 logs reduction)", "setting": "Recipe 9: 20 Torr, NO2 10 mg/L, 80% RH, dwell 10 min, 2 pulses, 24 aerations, alternative backstops, biological indicators", "result": "5/5"}, {"measurement": "Spiked Barrel: samples out of 5 reaching target lethality (6 logs reduction)", "setting": "Recipe 10: 20 Torr, NO2 10 mg/L, 80% RH, dwell 10 min, 1 pulse, 24 aerations, PFS with alternative backstops", "result": "5/5"}, {"measurement": "Spiked Backstop: samples out of 5 reaching target lethality (6 logs reduction)", "setting": "Recipe 10: 20 Torr, NO2 10 mg/L, 80% RH, dwell 10 min, 1 pulse, 24 aerations, alternative backstops, biological indicators", "result": "5/5"}, {"measurement": "Spiked Barrel: samples out of 5 reaching target lethality (6 logs reduction)", "setting": "Recipe 11: 20 Torr, NO2 5 mg/L, 80% RH, dwell 10 min, 1 pulse, 24 aerations, PFS with alternative backstops", "result": "4/5"}, {"measurement": "Spiked Backstop: samples out of 5 reaching target lethality (6 logs reduction)", "setting": "Recipe 11: 20 Torr, NO2 5 mg/L, 80% RH, dwell 10 min, 1 pulse, 24 aerations, alternative backstops, biological indicators", "result": "5/5"}, {"measurement": "Spiked Barrel: samples out of 5 reaching target lethality (6 logs reduction)", "setting": "Recipe 12: 20 Torr, NO2 5 mg/L, 80% RH, dwell 10 min, 2 pulses, 24 aerations, PFS with alternative backstops", "result": "5/5"}, {"measurement": "Spiked Backstop: samples out of 5 reaching target lethality (6 logs reduction)", "setting": "Recipe 12: 20 Torr, NO2 5 mg/L, 80% RH, dwell 10 min, 2 pulses, 24 aerations, alternative backstops, biological indicators", "result": "5/5"}, {"measurement": "Spiked Barrel: samples out of 5 reaching target lethality (6 logs reduction)", "setting": "Recipe 13: 20 Torr, NO2 5 mg/L, 80% RH, dwell 5 min, 2 pulses, 24 aerations, PFS with alternative backstops", "result": "5/5"}, {"measurement": "Spiked Backstop: samples out of 5 reaching target lethality (6 logs reduction)", "setting": "Recipe 13: 20 Torr, NO2 5 mg/L, 80% RH, dwell 5 min, 2 pulses, 24 aerations, alternative backstops, biological indicators", "result": "5/5"}, {"measurement": "Spiked Barrel: samples out of 5 reaching target lethality (6 logs reduction)", "setting": "Recipe 15: 500 Torr, NO2 5 mg/L, 80% RH, dwell 5 min, 2 pulses, 70 aerations, PFS with alternative backstops", "result": "5/5"}, {"measurement": "Spiked Backstop: samples out of 5 reaching target lethality (6 logs reduction)", "setting": "Recipe 15: 500 Torr, NO2 5 mg/L, 80% RH, dwell 5 min, 2 pulses, 70 aerations, alternative backstops, biological indicators", "result": "5/5"}]}
